According to patent US9657263B2 (priority 2010, dated 2017):

Tests used:
influenza A virus = system: influenza A virus; design: species or system BALB/c mice; conditions: mouse, in vivo
influenza B virus = system: influenza B virus; design: species or system BALB/c mice; conditions: mouse, in vivo

SMILES: CCOC(=O)C1=C[C@@H](OC(CC)CC)[C@H](NC(C)=O)[C@@H](N)C1 [Tamiflu, oseltamivir phosphate]
- death rate (FIG. 4a) (influenza A virus): 33%
- clinical symptoms (influenza B virus): significant weight loss, cough, deem and messy hairs, decreased activity
- survival rate (influenza B virus): 100%
